Laboratory results: article PMC8159111 (Pathogens, 2021)
Like-named read-outs stand apart in the source and are kept apart here.

How the values were obtained:
[1] = Cytotoxicity (CC50) determination, crystal violet assay; format: cell-based; conditions: African green monkey, Vero E6 cells, Table 4 prints no unit, Figure 4 prints μM, read-out: CC50 (half-maximal cytotoxic concentration)
Description: To assess the half maximal cytotoxic concentration (CC50), stock solutions of the test compounds were prepared in 10% DMSO in ddH2O and diluted further to the working solutions with DMEM. The cytotoxic activity of the extracts was tested in VERO-E6 cells by using crystal violet assay as previously described with minor modifications. Briefly, the cells were seeded in 96-well plates (100 µL/well at a density of 3 × 10^5 cells/mL) and incubated for 24 h at 37 °C in a humidified 5% CO2 incubator. After 24 h, cells were treated with various concentrations of the tested compounds in triplicates. Seventy two hours later, the supernatant was discarded, and cell monolayers were fixed with 10% formaldehyde for 1 h at room temperature (RT). The fixed monolayers were then dried and stained with 50 µL of 0.1% crystal violet for 20 min on a bench rocker at RT. The monolayers were then washed, dried and the crystal violet dye in each well was then dissolved with 200 µL of methanol for 20 min on a bench rocker at RT. The absorbance of crystal violet solutions was measured at λmax 570 nm as a reference wavelength using a multi-well plate reader.

[2] = tested on: SARS-CoV-2 "NRC-03-nhCoV" virus; test: Inhibitory concentration 50 (IC50) determination, reduction of virus-induced cytopathic effect in Vero-E6 cells; format: cell-based; conditions: for Selectivity Index (CC50/IC50): CC50 on Vero E6 / IC50 against NRC-03-nhCoV; for IC50: Severe acute respiratory syndrome coronavirus 2, Vero C1008, 72 h, unit not given in Table 4 and Figure 6, Figure 4 and text print μM
Description: The IC50 values for the tested compounds were determined as previously described, with minor modifications. Briefly, in 96-well tissue culture plates, 2.4 × 10^4 Vero-E6 cells were distributed in each well and incubated overnight at a humidified 37°C incubator under 5% CO2 condition. The cell monolayers were then washed once with 1× PBS. An aliquot of the SARS-CoV-2 “NRC-03-nhCoV” virus containing 100 TCID50 was incubated with serial diluted compounds and kept at 37 °C for 1 h. The Vero-E6 cells were treated with virus/compound mix and co-incubated at 37 °C in a total volume of 200 µL per well. Untreated cells infected with virus represented the virus control; however, cells that were not treated and not infected were the cell control. Following incubation at 37 °C in 5% CO2 incubator for 72 h, the cells were fixed with 100 μL of 10% paraformaldehyde for 20 min and stained with 0.5% crystal violet in distilled water for 15 min at RT. The crystal violet dye was then dissolved using 100 μL of absolute methanol per well and the optical density of the color was measured at 570 nm using the Anthos Zenyth 200 rt plate reader (Anthos Labtec Instruments, Heerhugowaard, the Netherlands).

[3] = against NRC-03-nhCoV in Vero E6, 72 h, CPE reduction, crystal violet, read-out: IC50 (half-maximal inhibitory concentration)

| Structure (SMILES) | CC50 at 72 h [1] | Selectivity Index (CC50/IC50) [2] | IC50 [2, 3] | IC50 ([2]; read-out: IC50 (half-maximal inhibitory concentration), against NRC-03-nhCoV in Vero E6, 72 h, CPE reduction, crystal violet) |
| --- | --- | --- | --- | --- |
| CC1(C)CC[C@]2(C(=O)O)CC[C@]3(C)C(=CC[C@@H]4[C@@]5(C)CC[C@H](O)C(C)(C)[C@@H]5CC[C@]43C)[C@@H]2C1 [Compound 1, Oleanolic acid] | 190 µM | 0.39 | 476 µM |  |
| CC1(C)CC[C@]2(C(=O)O)CC[C@]3(C)C(=CC[C@@H]4[C@@]5(C)C[C@@H](O)[C@H](O)C(C)(C)[C@@H]5CC[C@]43C)[C@@H]2C1 [Compound 2, Maslinic acid] | 97.3 µM | 0.97 | 99.9 µM |  |
| C#CCOC(=O)[C@]12CCC(C)(C)CC1C1=CCC3[C@@]4(C)CC[C@H](O)C(C)(C)C4CC[C@@]3(C)[C@]1(C)CC2 (stereo partly drawn) [Compound 3, Propargyl-(3β)-3-hydroxyolean-12-en-28-oate] | 97.4 µM | 2.32 | 42 µM |  |
| C#CCOC(=O)[C@]12CCC(C)(C)CC1C1=CCC3[C@@]4(C)C[C@@H](O)[C@H](O)C(C)(C)C4CC[C@@]3(C)[C@]1(C)CC2 (stereo partly drawn) [Compound 4, Propargyl-(2α,3β)-2,3-dihydroxyolean-12-en-28-oate] | 157 µM | 0.67 | 236 µM |  |
| C#CCOC(=O)C12CCC(C)(C)CC1C1=CCC3C4(C)CC(OCC#C)C(O)C(C)(C)C4CCC3(C)C1(C)CC2 (stereo not drawn) [Compound 5, Propargyl-(2α)-2-(propargyloxy)-(3β)-3-hydroxy-olean-12-en-28-oate] | 90.6 µM | 1.06 | 85.2 µM |  |
| C#CCOC(=O)C12CCC(C)(C)CC1C1=CCC3C4(C)CC(O)C(OCC#C)C(C)(C)C4CCC3(C)C1(C)CC2 (stereo not drawn) [Compound 6, Propargyl-(3α)-3-(propargyloxy)-(2β)-2-hydroxy-olean-12-en-28-oate] | 209 µM | 1.55 | 135 µM |  |
| C#CCOC(=O)C12CCC(C)(C)CC1C1=CCC3C4(C)CC(OCC#C)C(OCC#C)C(C)(C)C4CCC3(C)C1(C)CC2 (stereo not drawn) [Compound 7, Propargyl-(2α,3β)-2,3-bis(propargyloxy)-olean-12-en-28-oate] | 97.4 µM | 0.90 | 108 µM |  |
| Cc1cccc(-n2nncc2COC(=O)C23CCC(C)(C)CC2C2=CCC4C5(C)CCC(O)C(C)(C)C5CCC4(C)C2(C)CC3)c1 (stereo not drawn) [Compound 8, (1-(3-methylphenyl)-1H-1,2,3-triazol-5-yl)methyl-(3β)-3-hydroxyolean-12-en-28-oate] | 170 µM | 0.98 | 174 µM |  |
| Cc1cccc(-n2cc(COC(=O)C34CCC(C)(C)CC3C3=CCC5C6(C)CCC(O)C(C)(C)C6CCC5(C)C3(C)CC4)nn2)c1 (stereo not drawn) [Compound 10, (1-(3-methylphenyl)-1H-1,2,3-triazol-4-yl)methyl-(3β)-3-hydroxyolean-12-en-28-oate] | 277 µM | 3.68 | 75.3 µM |  |
| CC1(C)CCC2(C(=O)OCc3cn(-c4ccccc4)nn3)CCC3(C)C(=CCC4C5(C)CC(O)C(O)C(C)(C)C5CCC43C)C2C1 (stereo not drawn) [Compound 11, (1-Phenyl-1H-1,2,3-triazol-4-yl)methyl-(2α,3β)-2,3-dihydroxyolean-12-en-28-oate] | 218 µM | 1.62 | 135 µM |  |
| CC1(C)CC[C@]2(C(=O)OCc3cn(-c4ccc(Cl)cc4)nn3)CC[C@]3(C)C(=CCC4[C@@]5(C)C[C@@H](OCc6cn(-c7ccc(Cl)cc7)nn6)[C@H](O)C(C)(C)C5CC[C@]43C)C2C1 (stereo partly drawn) [Compound 12, (1-(4-Chlorophenyl)-1H-1,2,3-triazol-4-yl)methyl-(2α,3β)-2-((1-(4-chlorophenyl)-1H-1,2,3-triazol-4-yl)methoxy)-3-hydroxyolean-12-en-28-oate] | 514 µM | 4.42 |  |  |
| COc1ccc(-n2cc(COC(=O)[C@]34CCC(C)(C)CC3C3=CCC5[C@@]6(C)C[C@@H](O)[C@H](OCc7cn(-c8ccc(OC)cc8)nn7)C(C)(C)C6CC[C@@]5(C)[C@]3(C)CC4)nn2)cc1 (stereo partly drawn) [Compound 13, (1-(4-Methoxyphenyl)-1H-1,2,3-triazol-4-yl)methyl-(2α,3β)-2-hydroxy-3-((1-(4-methoxyphenyl)-1H-1,2,3-triazol-4-yl)methoxy)-olean-12-en-28-oate] | 356 µM | 2.24 |  |  |
| COc1ccc(-n2cc(COC(=O)[C@]34CCC(C)(C)CC3C3=CCC5[C@@]6(C)C[C@@H](OCc7cn(-c8ccc(OC)cc8)nn7)[C@H](OCc7cn(-c8ccc(OC)cc8)nn7)C(C)(C)C6CC[C@@]5(C)[C@]3(C)CC4)nn2)cc1 (stereo partly drawn) [Compound 14, (1-(4-Methoxyphenyl)-1H-1,2,3-triazol-4-yl)methyl-(2α,3β)-2,3-bis((1-(4-methoxyphenyl)-1H-1,2,3-triazol-4-yl)methoxy)-olean-12-en-28-oate] | 405 µM | 2.96 |  |  |
| COc1ccc(-c2cc(COC(=O)C34CCC(C)(C)CC3C3=CCC5C6(C)CCC(O)C(C)(C)C6CCC5(C)C3(C)CC4)on2)cc1 (stereo not drawn) [Compound 15, (3-(4-methoxyphenyl)isoxazol-5-yl) methyl-(3β)-3-hydroxyolean-12-en-28-oate] |  |  | 523 µM |  |
| COc1ccc(-c2cc(COC(=O)C34CCC(C)(C)CC3C3=CCC5C6(C)CC(O)C(O)C(C)(C)C6CCC5(C)C3(C)CC4)on2)cc1 (stereo not drawn) [Compound 16, (3-(4-methoxyphenyl)isoxazol-5-yl) methyl-(2α,3β)-2,3-dihydroxyolean-12-en-28-oate] | 324 µM | 1.48 |  | 219 µM |
